Source: patent US9688630B2, “3,3′-disubstituted indolines as inhibitors of cholesterol ester transfer protein” (Merck Sharp & Dohme Corp., priority 2013, dated 2017)
pIC50: −log10 of the molar value.

Columns and labels:
recombinant CETP = target: T1, recombinant CETP (Homo sapiens, UniProt P11597); test: RTA assay using recombinant CETP (2% RTA); assay type: biochemical; conditions: 2% human serum
T1 sequence (P11597 18-493): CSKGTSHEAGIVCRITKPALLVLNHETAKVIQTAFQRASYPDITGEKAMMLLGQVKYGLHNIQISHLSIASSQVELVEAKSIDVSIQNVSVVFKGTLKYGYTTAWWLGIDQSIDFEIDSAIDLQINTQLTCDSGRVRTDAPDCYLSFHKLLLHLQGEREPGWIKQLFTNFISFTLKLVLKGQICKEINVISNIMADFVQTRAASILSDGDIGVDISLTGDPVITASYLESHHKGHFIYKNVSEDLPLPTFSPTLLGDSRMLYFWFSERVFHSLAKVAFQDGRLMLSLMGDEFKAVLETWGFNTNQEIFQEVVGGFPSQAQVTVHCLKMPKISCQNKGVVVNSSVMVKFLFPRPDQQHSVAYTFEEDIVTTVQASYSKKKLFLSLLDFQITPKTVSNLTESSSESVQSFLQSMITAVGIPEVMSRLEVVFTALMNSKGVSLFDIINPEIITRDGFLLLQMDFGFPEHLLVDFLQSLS
Description: (§1) In Vitro Radioactive Assays of CETP-Catalyzed CE and TG Transfer (RTA Assay)
(§2) Reagents and sources are: [3H] cholesteryl oleate (GE #TRK.886), [3H] Triolein (Perkin-Elmer NET-431), Butylated hydroxyl toluene (Aldrich, #D4740-4), DOPC (Sigma, #P6354), Sodium Bromide (Fisher scientific #S255-500), PEG 8000 (Fisher, #BP233-1), and human HDL (Intracel Corp #RP-036).
(§3) An in vitro assay for determining IC50's to identify compounds that inhibit CETP transfer activity is performed based on a modification of a published method (Morton and Zilversmit, (1981) A plasma inhibitor of triglyceride and cholesteryl ester transfer activities, J. Biol. Chem. 256(23), 11992-11995). The ability of inhibitors to alter CETP activity is performed using two different assays: one using recombinant CETP and one using an endogenous plasma source of CETP. Both assays measure the transfer of [3H] cholesteryl oleate or [3H] triolein from exogenous LDL to HDL.
(§4) Radiolabeled donor particles are generated by first combining 100 μl of 200 μM butylated hydroxyl toluene in CHCl3, 216 μL of 21.57 mM DOPC in EtOH, and either 500 μCi [3H]-triolein (Perkin Elmer #NET-431) or 500 μCi [3H]-cholesteryl oleate (GE #TRK886) in a glass tube. Reagents are mixed, dried under nitrogen, and then resuspended in 2 mL of 50 mM Tris, 27 μM EDTA at pH 7.4. After a brief vortex, the solution is sonicated until clear and mixed with 20 mL of fresh human serum. The mixture is incubated overnight at 37° C. The [3H] labeled LDL substrate is separated at 1.063 g/ml density by sequential ultracentrifugal flotation in NaBr according to the method of Havel, Eder, et al., 1955, and Chapman, Goldstein, et al., 1981. Once isolated the particles are dialyzed 3× in CETP buffer (50 mM Tris, pH 7.4, 100 mM NaCl, 1 mM EDTA). Human HDL is purchased from Intracel and used as the acceptor particles.
(§5) Transfer assays are performed in a 96-well v-bottom polypropylene plate. For the RTA using recombinant CETP (2% RTA), an assay cocktail is prepared with the final concentrations 128 μg/mL HDL, 20 nM rCETP, 2% human serum, and 1×CETP buffer. 1 μL of each test compound diluted in DMSO is added to 47 μL of assay cocktail per well and incubated at 37° C. for 1 hour. To initiate the transfer reaction, 2 μL radiolabeled LDL is added. After an additional 60 min of incubation at 37° C., the transfer action is terminated by precipitation of LDL with an equal volume of 20% W/V PEG 8000. The plates are centrifuged at 2000 rpm for 30 minutes at 4° C. A 40 μL aliquot of the HDL-containing supernatant is transferred to a Packard Optiplate™ with 200 μL of MicroScint™ 20. After mixing, plates are counted by liquid scintillation. Counts present in the supernatant for blanks (wells containing only HDL acceptor, CETP buffer and DMSO) are subtracted from those containing test compounds and used to correct for non-specific transfer.
(§6) Comparison of the counts of samples with inhibitors to an uninhibited (DMSO only) positive control yield a percent inhibition. A plot of percent inhibition vs. log of inhibitor concentration, fit to a Sigmoidal 4 parameter equation is used to calculate IC50.

[1] = target: T2, endogenous CETP from human serum (Homo sapiens, UniProt P11597); test: RTA assay using endogenous CETP from serum (95% RTA); assay type: biochemical; conditions: 95% human serum
T2 construct: yielding a concentration of approximately 15 nM endogenous CETP in the assay; from tissue; host or cells: human serum
T2 sequence (P11597 18-493): T1 sequence (P11597 18-493)
Description: as §1, §2, §3, §4, §5
For the transfer assay using endogenous CETP from serum (95% RTA), the same procedure is used except that human serum is added such that a final concentration of serum of 95% of the total assay volume is achieved, yielding a concentration of approximately 15 nM endogenous CETP in the assay. This is then combined with HDL and CETP buffer and the reaction proceeds as above and is terminated as described.
as §6

[2] = cited from earlier work
[3] = Phase III outcomes trial, cited from earlier work
[4] = patients on baseline statin therapy, compared with patients treated with just a statin

| SMILES | pIC50 (recombinant CETP) | pIC50 [1] | further results |
| --- | --- | --- | --- |
| CC1(O)CN(c2cccc(C3(Cc4cccc(OC(F)(F)F)c4)CN(C[C@@H](O)C(F)(F)F)c4ccccc43)c2)C1 (stereo partly shown) [Example 33] | 5.91 | 5.36 |  |
| O[C@H](CN1CC(Cc2cccc(OC(F)(F)F)c2)(c2cccc(N3CC(F)C3)c2)c2ccccc21)C(F)(F)F (stereo partly shown) [Example 34] | 7.23 | 6.50 |  |
| O[C@H](CN1CC(Cc2cccc(OC(F)(F)F)c2)(c2cccc(N3CCC(F)(F)C3)c2)c2ccccc21)C(F)(F)F (stereo partly shown) [Example 35] | 7.01 | 6.27 |  |
| CO[C@@H]1CCN(c2cccc(C3(Cc4cccc(OC(F)(F)F)c4)CN(C[C@@H](O)C(F)(F)F)c4ccccc43)c2)C1 (stereo partly shown) [Example 36] | 6.94 | 6.11 |  |
| CO[C@H]1CCN(c2cccc(C3(Cc4cccc(OC(F)(F)F)c4)CN(C[C@@H](O)C(F)(F)F)c4ccccc43)c2)C1 (stereo partly shown) [Example 37] | 7.11 | 6.40 |  |
| C[C@H]1CN(c2cccc(C3(Cc4cccc(OC(F)(F)F)c4)CN(C[C@@H](O)C(F)(F)F)c4ccccc43)c2)CCO1 (stereo partly shown) [Example 38] | 6.93 | 6.17 |  |
| O[C@H](CN1CC(Cc2cccc(OC(F)(F)F)c2)(c2cccc(N3CCC(F)(F)CC3)c2)c2ccccc21)C(F)(F)F (stereo partly shown) [Example 39] | 6.79 | 5.97 |  |
| O[C@H](CN1CC(Cc2cccc(OC(F)(F)F)c2)(c2cccc(N3CCCC(F)(F)C3)c2)c2ccccc21)C(F)(F)F (stereo partly shown) [Example 40] | 6.92 | 6.10 |  |
| O[C@H](CN1CC(Cc2cccc(OC(F)(F)F)c2)(c2cccc(N3CC[C@H](F)C3)c2)c2ccccc21)C(F)(F)F (stereo partly shown) [Example 41] | 7.14 | 6.30 |  |
| O[C@H](CN1CC(Cc2cccc(OC(F)(F)F)c2)(c2cccc(N3CC[C@@H](F)C3)c2)c2ccccc21)C(F)(F)F (stereo partly shown) [Example 42] | 7.40 | 6.12 |  |
| C[C@@H]1CN(c2cccc(C3(Cc4cccc(OC(F)(F)F)c4)CN(C[C@@H](O)C(F)(F)F)c4ccccc43)c2)CCO1 (stereo partly shown) [Example 43] | 7.01 | 6.03 |  |
| OC1CCN(c2cccc(C3(Cc4cccc(OC(F)(F)F)c4)CN(C[C@@H](O)C(F)(F)F)c4ccccc43)c2)C1 (stereo partly shown) [Example 44] | 6.31 | 5.69 |  |
| N#Cc1cccc(CC2(c3cccc(OC(F)(F)F)c3)CN(C[C@@H](O)C(F)(F)F)c3ccccc32)c1 (stereo partly drawn) [Example 45, 3-((1-((R)-3,3,3-trifluoro-2-hydroxypropyl)-3-(3-(trifluoromethoxy)phenyl)indolin-3-yl)methyl)benzonitrile] | 6.77 | 6.04 |  |
| CS(=O)(=O)c1cccc(CC2(c3cccc(OC(F)(F)F)c3)CN(C[C@@H](O)C(F)(F)F)c3ccccc32)c1 (stereo partly drawn) [Example 46, (2R)-1,1,1-trifluoro-3-(3-(3-(methylsulfonyl)benzyl)-3-(3-(trifluoromethoxy)phenyl)indolin-1-yl)propan-2-ol] | 6.58 | 5.05 |  |
| O[C@H](CN1CC(Cc2cccc(-c3cccc(OC(F)(F)F)c3)c2)(c2cccc(OC(F)(F)F)c2)c2ccccc21)C(F)(F)F (stereo partly drawn) [Example 47, (2R)-1,1,1-trifluoro-3-(3-((3′-(trifluoromethoxy)-[1,1′-biphenyl]-3-yl)methyl)-3-(3-(trifluoromethoxy)phenyl)indolin-1-yl)propan-2-ol] | 6.14 | 5.54 |  |
| O[C@H](CN1CC(Cc2cccc(N3CC(F)(F)C3)c2)(c2cccc(OC(F)(F)F)c2)c2ccccc21)C(F)(F)F (stereo partly drawn) [Example 48, (2R)-3-(3-(3-(3,3-difluoroazetidin-1-yl)benzyl)-3-(3-(trifluoromethoxy)phenyl)indolin-1-yl)-1,1,1-trifluoropropan-2-ol] | 7.08 | 6.61 |  |
| CO[C@H]1CCN(c2cccc(CC3(c4cccc(OC(F)(F)F)c4)CN(C[C@@H](O)C(F)(F)F)c4ccccc43)c2)C1 (stereo partly shown) [Example 49] | 6.71 | 5.68 |  |
| C[C@H]1CN(c2cccc(CC3(c4cccc(OC(F)(F)F)c4)CN(C[C@@H](O)C(F)(F)F)c4ccccc43)c2)CCO1 (stereo partly shown) [Example 50] | 6.32 | 5.31 |  |
| C[C@@H]1CN(c2cccc(CC3(c4cccc(OC(F)(F)F)c4)CN(C[C@@H](O)C(F)(F)F)c4ccccc43)c2)CCO1 (stereo partly shown) [Example 51] | 5.79 | 5.76 |  |
| O[C@H](CN1CC(Cc2cccc(N3CC(F)C3)c2)(c2cccc(OC(F)(F)F)c2)c2ccccc21)C(F)(F)F (stereo partly shown) [Example 52] | 6.35 | 5.23 |  |
| CC1(O)CN(c2cccc(CC3(c4cccc(OC(F)(F)F)c4)CN(C[C@@H](O)C(F)(F)F)c4ccccc43)c2)C1 (stereo partly shown) [Example 53] | 6.17 | 5.09 |  |
| O[C@H](CN1CC(Cc2cccc(N3CCC(F)(F)C3)c2)(c2cccc(OC(F)(F)F)c2)c2ccccc21)C(F)(F)F (stereo partly shown) [Example 54] | 6.29 | 5.44 |  |
| O[C@H](CN1CC(Cc2cccc(N3CC4(COC4)C3)c2)(c2cccc(OC(F)(F)F)c2)c2ccccc21)C(F)(F)F (stereo partly shown) [Example 55] | 7.01 | 6.27 |  |
| O[C@H](CN1CC(Cc2cccc(N3CCC(F)(F)CC3)c2)(c2cccc(OC(F)(F)F)c2)c2ccccc21)C(F)(F)F (stereo partly shown) [Example 56] | 6.38 | 5.16 |  |
| O[C@H](CN1CC(Cc2cccc(N3CC[C@H](F)C3)c2)(c2cccc(OC(F)(F)F)c2)c2ccccc21)C(F)(F)F (stereo partly shown) [Example 57] | 6.46 | 5.43 |  |
| O[C@H](CN1CC(Cc2cccc(N3CC[C@@H](F)C3)c2)(c2cccc(OC(F)(F)F)c2)c2ccccc21)C(F)(F)F (stereo partly shown) [Example 58] | 6.77 | 5.85 |  |
| O[C@H](CN1CC(Cc2cccc(N3CCCC(F)(F)C3)c2)(c2cccc(OC(F)(F)F)c2)c2ccccc21)C(F)(F)F (stereo partly shown) [Example 59] | 6.70 | 5.85 |  |
| COC(=O)c1cccc(CC2(c3cccc(OC(F)(F)F)c3)CN(C[C@@H](O)C(F)(F)F)c3ccccc32)c1 (stereo partly drawn) [Example 60, Methyl 3-((1-((R)-3,3,3-trifluoro-2-hydroxypropyl)-3-(3-(trifluoromethoxy)phenyl)indolin-3-yl)methyl)benzoate] | 6.18 | 6.03 |  |
| COc1cc(F)c(C(C)C)cc1-c1ccc(C(F)(F)F)cc1CN1C(=O)O[C@H](c2cc(C(F)(F)F)cc(C(F)(F)F)c2)[C@@H]1C [anacetrapib] |  |  | decrease of LDL-C [2, 4]: 40%; increase of HDL-C [2, 4]: 138%; increase in mortality ([2]; patients treated with anacetrapib, DEFINE trial): unlikely |
| CCC(CC)CC1(C(=O)Nc2ccccc2SC(=O)C(C)C)CCCCC1 [dalcetrapib] |  |  | clinical benefit (interim data) ([3]; terminated early): did not show a clinical benefit; safety issues [3]: no safety issues detected |
